# From patent US20080132689A1, “Labile Linkage for Compound Delivery to a Cell” (priority 2003, published 2008)
# Columns and labels:
# [1] = test system: Hepa mouse hepatoma cells; assay: DNA transfection with crosslinked pCIluc/DW921 complexes, luciferase expression; format: cell-based; details: pCIluc 10 μg/mL, DW921 100 μg/mL, 48 h, average of two wells
# Description: To a solution of plasmid DNA pCIluc (10 μg/mL, 0.075 mM in phosphate, 2.6 μg/μL pCIluc; prepared according to Danko et al. 1997) in 0.5 mL of 150 mM NaCl and 5 mM TAPS pH 9 was added 100 μg/mL DW921. The complexes were then reacted with glutaraldehyde, periodate oxidized phenyl glucoside (another crosslinker containing a labile bond), or periodate oxidized salicylic galactoside at 1, 2, 4, 8, or 16 μg/mL. The complexes were then added (200 μL) to wells containing Hepa mouse hepatoma cells in Dulbecco's modified Eagle's Media containing 10% fetal bovine serum. The cells were allowed to incubate for 48 h. The cells were then harvested and assayed for luciferase expression as previously reported. The amount of transfection was reported in relative light units and is the average transfection for two separate wells of cells.
# [2] = Measurement of acetal kinetics (rate of acetal hydrolysis in buffered solutions, by absorbance); format: physicochemical
# From the text: To illustrate the rate of cleavage of several example ortho carboxy phenol derived acetals, we synthesized the molecules 1-3 (shown in FIG. 2) and measured the rates of acetal hydrolysis for each at pH 5.2-7.3. • Acetal 1. R′, R=alkyl; and R1, R2, R3, R4=hydrogen • Acetal 2. R′, R=alkyl; R1, R4=hydrogen; R2=carboxyl (carbon-containing group); R3=hydroxyl (heteroatom) • Acetal 3. R′=alkyl; R, R2, R3, R4=hydrogen; and R1=carboxyl (carbon-containing group)
# To determine the rate of acetal hydrolysis, compounds 1-3 were added to buffered solutions (pH 7-8 with 5 mM HEPES, or pH 5-7 with 5 mM acetate) at various pH values and the absorbance of the solution was measured as a function of time (λ=302 nm for 1 and 2 and 310 nm for 3). The rate constant was determined by determining the slope of the line derived from plotting ln[1-((A∞-At)/(A∞-AO))] as a function of time t, where A∞ is absorbance after>3 hours of hydrolysis, At is the absorbance at time t, and AO is the initial absorbance. The half-life of the hydrolysis equals ln[2] divided by the rate constant.
smiles,measurement,setting,value
O=CCCCC=O [glutaraldehyde],Relative Light Units,[1]; 1 μg/mL dialdehyde crosslinker,915 Relative Light Units
same,Relative Light Units,[1]; 2 μg/mL dialdehyde crosslinker,620 Relative Light Units
same,Relative Light Units,[1]; 4 μg/mL dialdehyde crosslinker,"1,400 Relative Light Units"
same,Relative Light Units,[1]; 8 μg/mL dialdehyde crosslinker,590 Relative Light Units
same,Relative Light Units,[1]; 16 μg/mL dialdehyde crosslinker,565 Relative Light Units
CC(C)[C@@H]1CC[C@@H](C)C[C@H]1OCOc1c(C(=O)O)cccc1C(=O)O [Acetal 3],half-life (minutes) of acetal hydrolysis,[2]; pH 5.2,0.22 min
same,half-life (minutes) of acetal hydrolysis,[2]; pH 6.5,4.7 min
CC(C)CCOC(C)Oc1ccccc1C(=O)O (centres unmarked) [Acetal 1],half-life (minutes) of acetal hydrolysis,[2]; pH 7.3,1.0 min
